According to ChEMBL document CHEMBL6153128, “Insights into the Activation Mechanism of HCA1, HCA2, and HCA3” (J Med Chem, 2025):
Blank lines part the entries; values can stand above or below the compound they belong to. Active and inactive are the calls of the source. The calls are words filed in the database; no cut-off is given here.

Experiments:
[1] = system: HEK293; assay: Agonist activity at HCA2 (1 to 129 residues)/HCA3 (130-) N86Y/W91S mutant (unknown origin) expressed in HEK293 cells incubated for 90 mins by IP1 accumulation assay; assay type: cell-based; conditions: Homo sapiens
[2] = system: HEK293; assay: Agonist activity at HCA2 (1 to 129 residues)/HCA3 (130-)(unknown origin) expressed in HEK293 cells incubated for 90 mins by IP1 accumulation assay; assay type: cell-based; conditions: Homo sapiens
[3] = system: HEK293; assay: Agonist activity at HCA3 (1 to 129 residues)/HCA2 (130-) S178I mutant (unknown origin) expressed in HEK293 cells incubated for 90 mins by IP1 accumulation assay; assay type: cell-based; conditions: Homo sapiens, filed as agonist
[4] = molecular target: T1, Hydroxycarboxylic acid receptor 1 (Homo sapiens, UniProt Q9BXC0); assay: Agonist activity at HCA1 (unknown origin); assay type: functional, cell-based, HEK293
[5] = system: Hydroxycarboxylic acid receptor 1 (Homo sapiens), Q9BXC0 [C6A]; assay: Agonist activity at CRE-luc-fused HCA1 C6A mutant (unknown origin) expressed in HEK293 cells co-expressing XtremeGENE HP DNA assessed as inhibition of cAMP production preincubated for 30 mins followed by forskolin addition measured after 6 hrs by Bright-Glo Luciferase Assay; assay type: cell-based; conditions: time 6.5 hrs
[6] = system: Hydroxycarboxylic acid receptor 1 (Homo sapiens), Q9BXC0 [R99A]; assay: Agonist activity at CRE-luc-fused HCA1 R99A mutant (unknown origin) expressed in HEK293 cells co-expressing XtremeGENE HP DNA assessed as inhibition of cAMP production preincubated for 30 mins followed by forskolin addition measured after 6 hrs by Bright-Glo Luciferase Assay; assay type: cell-based; conditions: time 6.5 hrs
[7] = system: Hydroxycarboxylic acid receptor 1 (Homo sapiens), Q9BXC0 [R71A]; assay: Agonist activity at CRE-luc-fused HCA1 R71A mutant (unknown origin) expressed in HEK293 cells co-expressing XtremeGENE HP DNA assessed as inhibition of cAMP production preincubated for 30 mins followed by forskolin addition measured after 6 hrs by Bright-Glo Luciferase Assay; assay type: cell-based; conditions: time 6.5 hrs
[8] = system: Hydroxycarboxylic acid receptor 1 (Homo sapiens), Q9BXC0 [H261A]; assay: Agonist activity at CRE-luc-fused HCA1 H261A mutant (unknown origin) expressed in HEK293 cells co-expressing XtremeGENE HP DNA assessed as inhibition of cAMP production preincubated for 30 mins followed by forskolin addition measured after 6 hrs by Bright-Glo Luciferase Assay; assay type: cell-based; conditions: time 6.5 hrs
[9] = system: Hydroxycarboxylic acid receptor 1 (Homo sapiens), Q9BXC0 [E166I]; assay: Agonist activity at CRE-luc-fused HCA1 E166I mutant (unknown origin) expressed in HEK293 cells co-expressing XtremeGENE HP DNA assessed as inhibition of cAMP production preincubated for 30 mins followed by forskolin addition measured after 6 hrs by Bright-Glo Luciferase Assay; assay type: cell-based; conditions: time 6.5 hrs
[10] = system: Hydroxycarboxylic acid receptor 1 (Homo sapiens), Q9BXC0 [Y74A]; assay: Agonist activity at CRE-luc-fused HCA1 Y74A mutant (unknown origin) expressed in HEK293 cells co-expressing XtremeGENE HP DNA assessed as inhibition of cAMP production preincubated for 30 mins followed by forskolin addition measured after 6 hrs by Bright-Glo Luciferase Assay; assay type: cell-based; conditions: time 6.5 hrs
[11] = system: Hydroxycarboxylic acid receptor 1 (Homo sapiens), Q9BXC0 [C7A]; assay: Agonist activity at CRE-luc-fused HCA1 C7A mutant (unknown origin) expressed in HEK293 cells co-expressing XtremeGENE HP DNA assessed as inhibition of cAMP production preincubated for 30 mins followed by forskolin addition measured after 6 hrs by Bright-Glo Luciferase Assay; assay type: cell-based; conditions: time 6.5 hrs
[12] = system: Hydroxycarboxylic acid receptor 1 (Homo sapiens), Q9BXC0 [C88A]; assay: Agonist activity at CRE-luc-fused HCA1 C88A mutant (unknown origin) expressed in HEK293 cells co-expressing XtremeGENE HP DNA assessed as inhibition of cAMP production preincubated for 30 mins followed by forskolin addition measured after 6 hrs by Bright-Glo Luciferase Assay; assay type: cell-based; conditions: time 6.5 hrs
[13] = system: Hydroxycarboxylic acid receptor 1 (Homo sapiens), Q9BXC0 [E166A]; assay: Agonist activity at CRE-luc-fused HCA1 E166A mutant (unknown origin) expressed in HEK293 cells co-expressing XtremeGENE HP DNA assessed as inhibition of cAMP production preincubated for 30 mins followed by forskolin addition measured after 6 hrs by Bright-Glo Luciferase Assay; assay type: cell-based; conditions: time 6.5 hrs
[14] = system: Hydroxycarboxylic acid receptor 1 (Homo sapiens), Q9BXC0 [R240A]; assay: Agonist activity at CRE-luc-fused HCA1 R240A mutant (unknown origin) expressed in HEK293 cells co-expressing XtremeGENE HP DNA assessed as inhibition of cAMP production preincubated for 30 mins followed by forskolin addition measured after 6 hrs by Bright-Glo Luciferase Assay; assay type: cell-based; conditions: time 6.5 hrs
[15] = system: Hydroxycarboxylic acid receptor 1 (Homo sapiens), Q9BXC0 [H261F]; assay: Agonist activity at CRE-luc-fused HCA1 H261F mutant (unknown origin) expressed in HEK293 cells co-expressing XtremeGENE HP DNA assessed as inhibition of cAMP production preincubated for 30 mins followed by forskolin addition measured after 6 hrs by Bright-Glo Luciferase Assay; assay type: cell-based; conditions: time 6.5 hrs
[16] = molecular target: T1, Hydroxycarboxylic acid receptor 1; assay: Agonist activity at CRE-luc-fused HCA1 (unknown origin) expressed in HEK293 cells co-expressing XtremeGENE HP DNA assessed as inhibition of cAMP production preincubated for 30 mins followed by forskolin addition measured after 6 hrs by Bright-Glo Luciferase Assay; assay type: functional, cell-based; conditions: filed as agonist, time 6.5 hrs
[17] = system: Hydroxycarboxylic acid receptor 1 (Homo sapiens), Q9BXC0 [Y75A]; assay: Agonist activity at CRE-luc-fused HCA1 Y75A mutant (unknown origin) expressed in HEK293 cells co-expressing XtremeGENE HP DNA assessed as inhibition of cAMP production preincubated for 30 mins followed by forskolin addition measured after 6 hrs by Bright-Glo Luciferase Assay; assay type: cell-based; conditions: time 6.5 hrs
[18] = system: Hydroxycarboxylic acid receptor 1 (Homo sapiens), Q9BXC0 [Y268A]; assay: Agonist activity at CRE-luc-fused HCA1 Y268A mutant (unknown origin) expressed in HEK293 cells co-expressing XtremeGENE HP DNA assessed as inhibition of cAMP production preincubated for 30 mins followed by forskolin addition measured after 6 hrs by Bright-Glo Luciferase Assay; assay type: cell-based; conditions: time 6.5 hrs
[19] = system: HEK293; assay: Agonist activity at HCA3 (1 to 129 residues)/HCA2 (130-) Y86N/S91W mutant (unknown origin) expressed in HEK293 cells incubated for 90 mins by IP1 accumulation assay; assay type: cell-based; conditions: Homo sapiens, filed as agonist
[20] = system: HEK293; assay: Agonist activity at HCA3 (1 to 129 residues)/HCA2 (130-)(unknown origin) expressed in HEK293 cells incubated for 90 mins by IP1 accumulation assay; assay type: cell-based; conditions: Homo sapiens

T1 sequence (Q9BXC0 whole entry, the tested form may be a part): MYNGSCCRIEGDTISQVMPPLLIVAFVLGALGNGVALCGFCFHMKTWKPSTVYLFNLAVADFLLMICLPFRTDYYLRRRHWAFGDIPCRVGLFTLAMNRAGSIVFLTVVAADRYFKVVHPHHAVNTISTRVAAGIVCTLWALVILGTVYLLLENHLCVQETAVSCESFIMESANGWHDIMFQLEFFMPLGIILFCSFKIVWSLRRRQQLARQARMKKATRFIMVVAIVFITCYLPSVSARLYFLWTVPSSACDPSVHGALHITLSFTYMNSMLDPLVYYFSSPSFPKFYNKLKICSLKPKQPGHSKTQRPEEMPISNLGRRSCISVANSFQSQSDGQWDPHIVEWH
Hydroxycarboxylic acid receptor 1 (Homo sapiens), Q9BXC0 [H261A], sequence (Q9BXC0 whole entry H261A, the tested form may be a part): as the sequence (Q9BXC0 whole entry, the tested form may be a part) above, with H261A counted along it
Hydroxycarboxylic acid receptor 1 (Homo sapiens), Q9BXC0 [H261F], sequence (Q9BXC0 whole entry H261F, the tested form may be a part): as the sequence (Q9BXC0 whole entry, the tested form may be a part) above, with H261F counted along it
Hydroxycarboxylic acid receptor 1 (Homo sapiens), Q9BXC0 [C88A], sequence (Q9BXC0 whole entry C88A, the tested form may be a part): as the sequence (Q9BXC0 whole entry, the tested form may be a part) above, with C88A counted along it
Hydroxycarboxylic acid receptor 1 (Homo sapiens), Q9BXC0 [R240A], sequence (Q9BXC0 whole entry R240A, the tested form may be a part): as the sequence (Q9BXC0 whole entry, the tested form may be a part) above, with R240A counted along it
Hydroxycarboxylic acid receptor 1 (Homo sapiens), Q9BXC0 [Y268A], sequence (Q9BXC0 whole entry Y268A, the tested form may be a part): as the sequence (Q9BXC0 whole entry, the tested form may be a part) above, with Y268A counted along it
Hydroxycarboxylic acid receptor 1 (Homo sapiens), Q9BXC0 [C6A], sequence (Q9BXC0 whole entry C6A, the tested form may be a part): as the sequence (Q9BXC0 whole entry, the tested form may be a part) above, with C6A counted along it
Hydroxycarboxylic acid receptor 1 (Homo sapiens), Q9BXC0 [R99A], sequence (Q9BXC0 whole entry R79A, the tested form may be a part): as the sequence (Q9BXC0 whole entry, the tested form may be a part) above, with R79A counted along it
Hydroxycarboxylic acid receptor 1 (Homo sapiens), Q9BXC0 [E166A], sequence (Q9BXC0 whole entry E166A, the tested form may be a part): as the sequence (Q9BXC0 whole entry, the tested form may be a part) above, with E166A counted along it
Hydroxycarboxylic acid receptor 1 (Homo sapiens), Q9BXC0 [E166I], sequence (Q9BXC0 whole entry E166I, the tested form may be a part): as the sequence (Q9BXC0 whole entry, the tested form may be a part) above, with E166I counted along it
Hydroxycarboxylic acid receptor 1 (Homo sapiens), Q9BXC0 [Y74A], sequence (Q9BXC0 whole entry Y74A, the tested form may be a part): as the sequence (Q9BXC0 whole entry, the tested form may be a part) above, with Y74A counted along it
Hydroxycarboxylic acid receptor 1 (Homo sapiens), Q9BXC0 [Y75A], sequence (Q9BXC0 whole entry Y75A, the tested form may be a part): as the sequence (Q9BXC0 whole entry, the tested form may be a part) above, with Y75A counted along it
Hydroxycarboxylic acid receptor 1 (Homo sapiens), Q9BXC0 [R71A], sequence (Q9BXC0 whole entry R71A, the tested form may be a part): as the sequence (Q9BXC0 whole entry, the tested form may be a part) above, with R71A counted along it
Hydroxycarboxylic acid receptor 1 (Homo sapiens), Q9BXC0 [C7A], sequence (Q9BXC0 whole entry C7A, the tested form may be a part): as the sequence (Q9BXC0 whole entry, the tested form may be a part) above, with C7A counted along it

SMILES: CCCCCC(O)CC(=O)O (stereo not given)
Activity [1]: inactive
Activity [2]: inactive
Activity [3]: Active

EC50 [4]: ~184 µM
SMILES: O=C(O)c1cccc(O)c1 [3-HYDROXYBENZOIC ACID]

SMILES: CC1CCC(C(=O)Nc2nc(-c3cccs3)c(CC(=O)N3CCN(C)CC3)s2)CC1 (stereo not given)
EC50 [4]: ~0.05 µM

SMILES: O=C(O)c1cc(O)cc(Cl)c1
EC50 [4]: ~16 µM

EC50 [4]: 1000 µM
SMILES: CC(O)C(=O)O (stereo not given) [LACTIC ACID]

Activity [5]: inactive
Activity [6]: inactive
Activity [7]: inactive
EC50 [4]: ~150 µM
Activity [8]: inactive
Activity [9]: inactive
Activity [10]: inactive
Activity [11]: inactive
Activity [12]: inactive
Activity [13]: inactive
Activity [14]: inactive
Activity [15]: inactive
Activity [16]: Active
Activity [17]: inactive
Activity [18]: inactive
SMILES: O=C(O)c1cc(O)cc(O)c1 [3,5-DIHYDROXYBENZOIC ACID]

SMILES: CC(C)(Cc1nc(-c2ccc(O)cn2)no1)C(=O)NC1=C(C(=O)O)CCCC1
Activity [19]: Active
Activity [20]: inactive
Activity [2]: inactive
